Key:
Format in all cases: biochemical
PLK1 = target: T1, PLK1 (Homo sapiens, UniProt P53350); assay: PLK1 Inhibition Assay (Z-Lyte); conditions: 25 μM ATP, 8 nM PLK1; read-out: PLK1 IC50 Ranges
T1 construct: purchased Invitrogen PV3501
Procedure: PLK1 inhibition was determined using the Z-Lyte assay kit from Invitrogen (cat #PV3802). […] The % inhibition values were determined according to the manufacturer's directions and IC50 values were obtained using a non-linear 4 point logistic curve fit (XLfit4, IDBS)

human PLK4 = target: T2, human PLK4 (Homo sapiens, UniProt O00444); assay: PLK4 Inhibition Assay (indirect ELISA); conditions: 15 μM ATP, 4 nM GST-PLK4; read-out: PLK4 IC50 Ranges
T2 construct: amino terminal GST fusion of residues 1-391 of human PLK4; made in house; host or cells: E. coli
T2 sequence (O00444 1-391): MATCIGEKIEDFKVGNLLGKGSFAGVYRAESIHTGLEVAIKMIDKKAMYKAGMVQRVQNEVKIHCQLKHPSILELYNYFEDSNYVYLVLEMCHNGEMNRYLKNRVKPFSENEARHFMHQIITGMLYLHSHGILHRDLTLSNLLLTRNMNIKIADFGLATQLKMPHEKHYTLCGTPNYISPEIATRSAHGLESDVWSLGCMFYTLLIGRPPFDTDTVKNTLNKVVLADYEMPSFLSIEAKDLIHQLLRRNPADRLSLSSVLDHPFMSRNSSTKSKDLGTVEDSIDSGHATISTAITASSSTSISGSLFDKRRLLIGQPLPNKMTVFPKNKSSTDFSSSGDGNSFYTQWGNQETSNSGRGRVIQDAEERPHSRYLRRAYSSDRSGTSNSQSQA
Procedure: The protein was purified from clarified cell extracts after induction at 15° C. overnight using glutathione sepharose, gel permeation chromatography, and ion exchange (Resource Q). The resulting protein was dephosphorylated with lambda phosphatase (NEB cat #P0753), and resolved from the phosphatase using gluthione sepharose. The dephosphorylated GST-PLK4 was stored in aliquots at −80° C. until use. PLK4 activity was measured using an indirect ELISA detection system. […] Compounds were pre-incubated in the presence of enzyme for 15 minutes prior to addition of ATP and the activity remaining quantified using the above described activity assay. […] The IC50 value was determined using a non-linear 4 point logistic curve fit (XLfit4, IDBS) with the formula; (A+(B/(1+((x/C)^D)))), where A=background value, B=range, C=inflection point, D=curve fit parameter.

Aurora A = target: T3, Aurora A (Homo sapiens, UniProt O14965); assay: Aurora A Inhibition Assay (Z-Lyte); conditions: 20 μM ATP, 12 nM Aurora A; read-out: Aurora A IC50 Ranges
T3 construct: purchased Invitrogen PV3612
T3 sequence (O14965 1-403): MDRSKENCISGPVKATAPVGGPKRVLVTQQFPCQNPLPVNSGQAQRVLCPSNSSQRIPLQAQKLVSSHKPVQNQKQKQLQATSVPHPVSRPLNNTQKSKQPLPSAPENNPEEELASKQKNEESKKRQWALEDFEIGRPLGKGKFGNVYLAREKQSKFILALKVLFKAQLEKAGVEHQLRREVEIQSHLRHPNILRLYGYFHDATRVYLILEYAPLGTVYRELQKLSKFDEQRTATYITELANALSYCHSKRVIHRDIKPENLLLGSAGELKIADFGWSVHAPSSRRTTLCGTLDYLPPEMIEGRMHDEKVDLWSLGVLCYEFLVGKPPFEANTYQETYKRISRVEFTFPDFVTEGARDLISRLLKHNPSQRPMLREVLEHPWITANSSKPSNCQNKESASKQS
Procedure: (§1) Aurora A inhibition was determined using the Z-Lyte assay kit from Invitrogen. The assay was performed using the recommended manufacturer's instructions with 20 μM ATP and 12 nM Aurora A (Invitrogen cat #PV3612). The % inhibition values were determined according to the manufacturer's directions and IC50 values were obtained using a non-linear 4 point logistic curve fit (XLfit4, IDBS)

Aurora B = target: T4, Aurora B (Homo sapiens, UniProt Q96GD4); assay: Aurora B Inhibition Assay (Z-Lyte); conditions: 128 μM ATP, 28 nM Aurora B; read-out: Aurora B IC50 Ranges
T4 construct: purchased Invitrogen PV3970
Procedure: as §1, with “Aurora B” for “Aurora A”, “with 128” for “with 20”, “and 28” for “and 12”, “cat #PV3970).” for “cat #PV3612).”

T4 sequence (Q96GD4 whole entry): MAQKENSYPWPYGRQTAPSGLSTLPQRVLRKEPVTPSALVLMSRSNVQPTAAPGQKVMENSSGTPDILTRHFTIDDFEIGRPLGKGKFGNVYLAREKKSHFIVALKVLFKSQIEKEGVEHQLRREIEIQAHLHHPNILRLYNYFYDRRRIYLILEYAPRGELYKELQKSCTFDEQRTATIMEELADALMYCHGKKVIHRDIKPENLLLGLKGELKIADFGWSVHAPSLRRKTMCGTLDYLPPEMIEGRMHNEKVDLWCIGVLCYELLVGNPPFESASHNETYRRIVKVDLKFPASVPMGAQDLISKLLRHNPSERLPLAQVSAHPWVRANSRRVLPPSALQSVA
T1 sequence (P53350 whole entry): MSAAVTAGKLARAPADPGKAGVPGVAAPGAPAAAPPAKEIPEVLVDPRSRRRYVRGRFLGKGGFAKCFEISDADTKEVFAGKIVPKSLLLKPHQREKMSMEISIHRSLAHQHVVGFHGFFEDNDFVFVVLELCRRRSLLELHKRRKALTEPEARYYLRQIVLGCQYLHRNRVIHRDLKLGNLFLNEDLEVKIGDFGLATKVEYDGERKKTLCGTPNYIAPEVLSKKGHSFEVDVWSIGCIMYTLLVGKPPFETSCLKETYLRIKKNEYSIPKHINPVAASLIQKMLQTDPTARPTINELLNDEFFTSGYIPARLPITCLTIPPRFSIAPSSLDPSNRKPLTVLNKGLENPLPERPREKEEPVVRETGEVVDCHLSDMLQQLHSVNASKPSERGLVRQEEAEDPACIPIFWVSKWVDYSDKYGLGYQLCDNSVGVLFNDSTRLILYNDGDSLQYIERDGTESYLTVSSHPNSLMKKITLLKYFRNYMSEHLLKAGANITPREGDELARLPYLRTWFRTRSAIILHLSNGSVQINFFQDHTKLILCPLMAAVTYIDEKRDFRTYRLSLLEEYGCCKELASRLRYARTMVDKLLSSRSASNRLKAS

Compound: CC(C)NC(=O)Nc1ccc2c(c1)/C(=C\c1ccc3nn[nH]c3c1)C(=O)N2 [Example A27, (E)-1-(3-((1H-benzo[d][1,2,3]triazol-5-yl)methylene)-2-oxoindolin-5-yl)-3-isopropylurea]
- IC50 (PLK1): 5 to 50 µM
- IC50 (human PLK4): 5 to 50 µM

Compound: O=C1Nc2ccc(OC(F)(F)F)cc2/C1=C\c1ccc2nn[nH]c2c1 [Example A14, (E)-3-((1H-benzo[d][1,2,3]triazol-5-yl)methylene)-5-(trifluoromethoxy)indolin-2-one]
- IC50 (PLK1): > 50 µM
- IC50 (human PLK4): < 5 µM

Compound: O=C1Nc2cc(-c3cccnc3)ccc2/C1=C\c1ccc2[nH]ncc2c1 [Example A30, (E)-3-((1H-indazol-5-yl)methylene)-6-(pyridin-3-yl)indolin-2-one]
- IC50 (PLK1): > 50 µM
- IC50 (human PLK4): 5 to 50 µM

Compound: CN1C(=O)/C(=C/c2ccc3cn[nH]c3c2)c2ccccc21 [Example A34, (E)-3-((1H-indazol-6-yl)methylene)-1-methylindolin-2-one]
- IC50 (PLK1): 5 to 50 µM
- IC50 (human PLK4): 5 to 50 µM

Compound: COc1cc2c(cc1OC)/C(=C\c1ccc3c(/C=C/c4ccncc4)n[nH]c3c1)C(=O)N2 [Example A138, (E)-5,6-dimethoxy-3-((3-((E)-2-(pyridin-4-yl)vinyl)-1H-indazol-6-yl)methylene)indolin-2-one]
- IC50 (Aurora A): < 5 µM
- IC50 (Aurora B): < 5 µM
- IC50 (human PLK4): < 5 µM

Compound: O=C1Nc2ccc(O)cc2/C1=C\c1ccc2cn[nH]c2c1 [Example A123, (E)-3-((1H-indazol-6-yl)methylene)-5-hydroxyindolin-2-one]
- IC50 (Aurora A): < 5 µM
- IC50 (Aurora B): < 5 µM
- IC50 (human PLK4): < 5 µM

Compound: O=C1Nc2ncccc2C1=Cc1ccc2c(/C=C/c3ccc(C(=O)O)cc3)n[nH]c2c1 (mixture of isomers) [Example A146, 4-((E)-2-(6-((E/Z)-(2-oxo-1H-pyrrolo[2,3-b]pyridin-3(2H)-ylidene)methyl)-1H-indazol-3-yl)vinyl)benzoic acid]
- IC50 (Aurora A): < 5 µM
- IC50 (Aurora B): < 5 µM
- IC50 (human PLK4): < 5 µM

Compound: COc1ccc2c(c1)C(=Cc1ccc3c(/C=C/c4ccc(CN(C)C)cc4)n[nH]c3c1)C(=O)N2 (stereo in doubt) [Example A136b, (Z)-3-((3-(4-((dimethylamino)methyl)styryl)-1H-indazol-6-yl)-methylene)-5-methoxyindolin-2-one 2,2,2-trifluoroacetate]
- IC50 (Aurora A): < 5 µM
- IC50 (Aurora B): < 5 µM

Compound: CC(=O)Nc1ccc2c(c1)/C(=C\c1ccc3nn[nH]c3c1)C(=O)N2 [Example A23, (E)-N-(3-((1H-benzo[d][1,2,3]triazol-5-yl)methylene)-2-oxoindolin-5-yl)acetamide]
- IC50 (PLK1): 5 to 50 µM
- IC50 (human PLK4): < 5 µM

Compound: O=C1Nc2ccccc2/C1=C\c1ccc2c(/C=C/c3ccc(C(=O)O)cc3)n[nH]c2c1 [Example A144, 4-((E)-2-(6-((E)-(2-oxoindolin-3-ylidene)methyl)-1H-indazol-3-yl)vinyl)benzoic acid]
- IC50 (Aurora A): < 5 µM
- IC50 (Aurora B): < 5 µM
- IC50 (human PLK4): < 5 µM

Compound: Nc1ccc2c(c1)/C(=C\c1ccc3cn[nH]c3c1)C(=O)N2 [Example A15, (E)-3-((1H-indazol-6-yl)methylene)-2-oxoindolin-5-aminium 2,2,2-trifluoroacetate]
- IC50 (PLK1): 5 to 50 µM
- IC50 (human PLK4): < 5 µM

Compound: CC(=O)Nc1ccc2c(c1)NC(=O)/C2=C/c1ccc2nn[nH]c2c1 [Example A17, (E)-N-(3-((1H-benzo[d][1,2,3]triazol-5-yl)methylene)-2-oxoindolin-6-yl)acetamide]
- IC50 (PLK1): 5 to 50 µM
- IC50 (human PLK4): 5 to 50 µM

Compound: CC(=O)Nc1ccc2c(c1)NC(=O)/C2=C/c1ccc2[nH]ncc2c1 [Example A18]
- IC50 (PLK1): 5 to 50 µM
- IC50 (human PLK4): < 5 µM

Compound: COc1ccc2c(c1)/C(=C\c1ccc3c(/C=C/c4cccc[n+]4[O-])n[nH]c3c1)C(=O)N2 [Example A88, 2-((E)-2-(6-((E)-(5-methoxy-2-oxoindolin-3-ylidene)methyl)-1H-indazol-3-yl)vinyl)pyridine 1-oxide]
- IC50 (Aurora B): < 5 µM
- IC50 (human PLK4): < 5 µM

Compound: CN(C)S(=O)(=O)Nc1ccc2c(c1)/C(=C\c1ccc3nn[nH]c3c1)C(=O)N2 [Example A21, N′-[(3E)-3-(1H-benzotriazol-5-ylmethylidene)-2-oxo-2,3-dihydro-1H-indol-5-yl]-N,N-dimethylsulfamide]
- IC50 (PLK1): 5 to 50 µM
- IC50 (human PLK4): < 5 µM

Compound: CN(C)S(=O)(=O)Nc1ccc2c(c1)/C(=C\c1ccc3cn[nH]c3c1)C(=O)N2 [Example A20, N′-[(3E)-3-(1H-indazol-6-ylmethylidene)-2-oxo-2,3-dihydro-1H-indol-5-yl]-N,N-dimethylsulfamide]
- IC50 (PLK1): < 5 µM
- IC50 (human PLK4): < 5 µM

Compound: CNC(=O)c1ccc2c(c1)/C(=C\c1ccc3cn[nH]c3c1)C(=O)N2 [Example A8, (E)-3-((1H-indazol-6-yl)methylene)-N-methyl-2-oxoindoline-5-carboxamide]
- IC50 (PLK1): 5 to 50 µM
- IC50 (human PLK4): 5 to 50 µM

Compound: CN1C(=O)/C(=C/c2ccc3nn[nH]c3c2)c2ccccc21 [Example A33, (E)-3-((1H-benzo[d][1.2.3]triazol-5-yl)methylene)-1-methylindolin-2-one]
- IC50 (PLK1): > 50 µM
- IC50 (human PLK4): 5 to 50 µM

Compound: O=C1Nc2cc(-c3cccnc3)ccc2/C1=C\c1ccc2[nH]nnc2c1 [Example A29, (E)-3-((1H-benzo[d][1,2,3]triazol-5-yl)methylene)-6-(pyridin-3-yl)indolin-2-one]
- IC50 (PLK1): > 50 µM
- IC50 (human PLK4): < 5 µM

Compound: CN(C)CCN(C)S(=O)(=O)c1ccc2c(c1)C(=Cc1ccc3c(/C=C/c4ccncc4)n[nH]c3c1)C(=O)N2 (mixture of isomers) [Example A129, (E and Z)—N-(2-(dimethylamino)ethyl)-N-methyl-2-oxo-3-((3-((E)-2-(pyridin-4-yl)vinyl)-1H-indazol-6-yl)methylene)indoline-5-sulfonamide]
- IC50 (Aurora B): < 5 µM
- IC50 (human PLK4): < 5 µM

Compound: CC(C)(C)OC(=O)Nc1ccc2c(c1)/C(=C\c1ccc3cn[nH]c3c1)C(=O)N2 [Example A12, (E)-tert-butyl 3-((1H-indazol-6-yl)methylene)-2-oxoindolin-5-ylcarbamate]
- IC50 (PLK1): 5 to 50 µM
- IC50 (human PLK4): < 5 µM

Compound: O=C1Nc2ccccc2C1=Cc1cc(/C=C/c2ccncc2)c2cn[nH]c2c1 (mixture of isomers) [Example A55, (E and Z)-3-((4-((E)-2-(pyridin-4-yl)vinyl)-1H-indazol-6-yl)methylene)indolin-2-one]
- IC50 (Aurora B): < 5 µM
- IC50 (human PLK4): < 5 µM

Compound: Nc1ccc2c(c1)/C(=C\c1ccc3c(/C=C/c4ccncc4)n[nH]c3c1)C(=O)N2 [Example A122, (E)-5-amino-3-((3-((E)-2-(pyridin-4-yl)vinyl)-1H-indazol-6-yl)-methylene)indolin-2-one bis(2,2,2-trifluoroacetate)]
- IC50 (Aurora B): < 5 µM
- IC50 (human PLK4): < 5 µM

Compound: CS(=O)(=O)Nc1ccc2c(c1)/C(=C\c1ccc3nn[nH]c3c1)C(=O)N2 [Example A24, (E)-N-(3-((1H-benzo[d][1,2,3]triazol-5-yl)methylene)-2-oxoindolin-5-yl)methanesulfonamide]
- IC50 (PLK1): 5 to 50 µM
- IC50 (human PLK4): < 5 µM

Compound: CS(=O)(=O)Nc1ccc2c(c1)/C(=C\c1ccc3cn[nH]c3c1)C(=O)N2 [Example A25, (E)-N-(3-((1H-indazol-6-yl)methylene)-2-oxoindolin-5-yl)methanesulfonamide]
- IC50 (PLK1): < 5 µM
- IC50 (human PLK4): < 5 µM

Reference: patent US8765748B2, “Indazolyl, benzimidazolyl, benzotriazolyl substituted indolinone derivatives as kinase inhibitors useful in the treatment of cancer” (University Health Network, priority 2007, dated 2014)
